Measured values: US8389526B2, “3-heteroarylmethyl-imidazo[1,2-b]pyridazin-6-yl derivatives” (Novartis AG, priority 2009, dated 2013)

Columns and labels:
[1] = target: T1, c-Met receptor tyrosine kinase, GST-c-Met(969-1390) (Homo sapiens, UniProt P08581); assay: EPK c-Met profiling assay (LanthaScreen TR-FRET kinase assay); format: biochemical; conditions: 2 μM ATP, 0.3 nM enzyme, 60 minutes at room temperature
T1 construct: made in house
Method in brief: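 Recombinant GST-c-Met(969-1390) cytoplasmic domain, 0.3 nM, phosphorylating 50 nM Fluorescein-PolyEAY with 2 μM ATP, 10 mM MgCl2, 3 mM MnCl2, 60 min at room temperature. EDTA-stopped; phosphoproduct detected by TR-FRET with Tb-PY20 antibody, end-point read. Final compound 0.003-10 μM over 8 concentrations.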

[2] = system: MET-amplified gastric cancer cell line GTL-16; assay: GTL-16 proliferation assay (MTS); format: cell-based; conditions: Homo sapiens, GTL-16 cells, 72 h incubation
Method in brief: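 GTL-16 cells were seeded at 3000/well in DMEM with 10% FCS. After 24 h they were treated in triplicate with a 10-point, 3-fold dilution series ([…]; DMSO-only control) for 72 h. Viable cells were measured by MTS, with OD 490 nm read after 30 min.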

c-Met = target: T2, c-Met (Homo sapiens, UniProt P08581); assay: GTL-16 c-Met autophosphorylation measured by AlphaScreen detection; format: cell-based; conditions: GTL-16 cells, 1 h incubation, AlphaScreen p-c-Met; read-out: GTL-16 IC50 c-Met phosphorylation
T2 construct: adapted to measure the phosphorylation of endogenous cellular proteins in cell lysates; endogenous in cells; host or cells: GTL-16
T2 sequence (P08581 25-1390): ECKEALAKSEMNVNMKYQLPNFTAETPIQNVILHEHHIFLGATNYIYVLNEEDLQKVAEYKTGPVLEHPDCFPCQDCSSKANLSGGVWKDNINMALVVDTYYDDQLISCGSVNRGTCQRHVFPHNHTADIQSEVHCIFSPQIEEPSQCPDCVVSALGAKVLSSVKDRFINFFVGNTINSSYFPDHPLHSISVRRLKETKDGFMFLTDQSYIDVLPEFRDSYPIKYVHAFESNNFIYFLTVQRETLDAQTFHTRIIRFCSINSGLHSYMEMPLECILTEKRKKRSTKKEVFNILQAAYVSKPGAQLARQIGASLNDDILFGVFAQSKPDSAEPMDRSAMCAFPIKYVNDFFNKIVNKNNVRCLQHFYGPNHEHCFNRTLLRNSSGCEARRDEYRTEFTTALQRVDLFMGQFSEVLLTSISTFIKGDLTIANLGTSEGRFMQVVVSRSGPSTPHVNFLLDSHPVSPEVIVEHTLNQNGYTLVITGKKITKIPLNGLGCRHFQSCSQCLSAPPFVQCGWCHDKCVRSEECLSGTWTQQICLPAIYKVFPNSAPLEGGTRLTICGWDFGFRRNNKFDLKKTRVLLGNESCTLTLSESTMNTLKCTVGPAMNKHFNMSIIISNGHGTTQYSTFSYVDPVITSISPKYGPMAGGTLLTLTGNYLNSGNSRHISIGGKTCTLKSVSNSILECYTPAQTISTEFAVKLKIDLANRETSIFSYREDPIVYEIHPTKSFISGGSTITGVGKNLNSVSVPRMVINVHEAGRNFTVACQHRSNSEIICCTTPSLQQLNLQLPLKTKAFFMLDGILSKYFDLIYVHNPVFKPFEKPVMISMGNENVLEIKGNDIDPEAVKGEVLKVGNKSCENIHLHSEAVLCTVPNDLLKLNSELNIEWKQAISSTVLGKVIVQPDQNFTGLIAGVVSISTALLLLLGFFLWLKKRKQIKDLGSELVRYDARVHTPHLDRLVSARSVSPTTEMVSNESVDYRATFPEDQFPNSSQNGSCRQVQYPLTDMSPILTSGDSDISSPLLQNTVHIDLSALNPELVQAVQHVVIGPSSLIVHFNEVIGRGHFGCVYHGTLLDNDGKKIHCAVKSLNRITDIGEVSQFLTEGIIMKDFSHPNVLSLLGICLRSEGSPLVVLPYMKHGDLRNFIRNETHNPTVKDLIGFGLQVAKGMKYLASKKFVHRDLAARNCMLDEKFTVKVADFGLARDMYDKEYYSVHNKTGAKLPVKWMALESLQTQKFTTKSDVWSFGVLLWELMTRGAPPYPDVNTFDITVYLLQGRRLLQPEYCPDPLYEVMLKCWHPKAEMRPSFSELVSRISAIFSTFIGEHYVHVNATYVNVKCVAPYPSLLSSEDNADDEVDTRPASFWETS
Method in brief: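 GTL-16 MET-amplified gastric cancer cells, serum-free DMEM with 0.1% BSA, exposed to 8-point compound dilutions for 1 h at 37° C (0.11% DMSO final). Lysates probed for phospho-c-Met by AlphaScreen using anti-c-Met antibody, biotinylated PY20 phosphotyrosine antibody, Protein A acceptor and streptavidin donor beads.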

T1 sequence (P08581 969-1390): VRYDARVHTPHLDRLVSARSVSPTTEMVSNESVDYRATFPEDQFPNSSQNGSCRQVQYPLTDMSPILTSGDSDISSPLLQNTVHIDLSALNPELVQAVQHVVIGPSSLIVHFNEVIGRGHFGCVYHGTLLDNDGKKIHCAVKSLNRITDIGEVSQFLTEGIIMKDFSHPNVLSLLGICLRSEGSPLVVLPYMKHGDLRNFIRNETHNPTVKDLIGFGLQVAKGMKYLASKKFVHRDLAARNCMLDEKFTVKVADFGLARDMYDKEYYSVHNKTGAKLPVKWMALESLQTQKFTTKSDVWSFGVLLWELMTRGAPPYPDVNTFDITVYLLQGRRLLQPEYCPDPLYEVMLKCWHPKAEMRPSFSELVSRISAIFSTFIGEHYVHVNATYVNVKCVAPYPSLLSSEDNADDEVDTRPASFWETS

Row | SMILES | IC50 [1] [nM] | IC50 [2] [nM] | IC50 (c-Met) [nM]
1 | Fc1cc2ncccc2c(F)c1Cc1cnc2ccc(N3CCNCC3)nn12 [Example 32, 5,7-Difluoro-6-(6-piperazin-1-yl-imidazo[1,2-b]pyridazin-3-ylmethyl)-quinoline] | 7.4 | 25 | < 3
2 | C[C@@H](c1cc2cnn(C)c2cc1F)c1cnc2ccc(N3CCN(C)C(=O)C3)nn12 [Example 26, 4-{3-[(S)-1-(6-Fluoro-1-methyl-1H-indazol-5-yl)-ethyl]-imidazo[1,2-b]pyridazin-6-yl}-1-methyl-piperazin-2-one] | 26 | 66 | 10
3 | C[C@@H](c1c(F)cc2ncccc2c1F)c1cnc2ccc(N3CCN(C(N)=O)CC3)nn12 [Example 16, 4-{3-[(S)-1-(5,7-Difluoro-quinolin-6-yl)-ethyl]-imidazo[1,2-b]pyridazin-6-yl}-piperazine-1-carboxylic acid amide] | 1.7 | 15 | 5.5
4 | CC(=O)N1CCN(c2ccc3ncc(C(C)c4c(F)cc5ncccc5c4F)n3n2)CC1 (racemic) [Example 10, (rac)-1-(4-{3-[1-(5,7-Difluoro-quinolin-6-yl)-ethyl]-imidazo[1,2-b]pyridazin-6-yl}-piperazin-1-yl)ethanone] | < 3 | 14.6 | < 3
5 | CN1CCN(c2ccc3ncc(Cc4c(F)cc5ncccc5c4F)n3n2)CC1=O [Example 30, 4-[3-(5,7-Difluoro-quinolin-6-ylmethyl)-imidazo[1,2-b]pyridazin-6-yl]-1-methyl-piperazin-2-one] | 6.6 | 37 | < 3
6 | CC(c1ccc2ncccc2c1F)c1cnc2ccc(N3CCNC(=O)C3)nn12 (racemic) [Example 47, (rac)-4-{3-[1-(5-Fluoro-quinolin-6-yl)-ethyl]-imidazo[1,2-b]pyridazin-6-yl}-piperazin-2-one] | 15 | 19 | 5.5
7 | CC(c1cc2cnn(C)c2cc1F)c1cnc2ccc(N3CCNC(=O)C3)nn12 (racemic) [Example 27, (rac)-4-{3-[1-(6-Fluoro-1-methyl-1H-indazol-5-yl)-ethyl]-imidazo[1,2-b]pyridazin-6-yl}-piperazin-2-one] | 73 | 173 | 3
8 | CC(=O)N1CCN(c2ccc3ncc(C(C)c4cc5cccnc5cc4F)n3n2)CC1 (racemic) [Example 42, (rac)-1-(4-{3-[1-(7-Fluoro-quinolin-6-yl)-ethyl]-imidazo[1,2-b]pyridazin-6-yl}-piperazin-1-yl)ethanone] | 49 | 193 | 39
9 | CC(=O)N1CCN(c2ccc3ncc(C(C)c4ccc5ncccc5c4F)n3n2)CC1 (racemic) [Example 48, (rac)-1-(4-{3-[1-(5-Fluoro-quinolin-6-yl)-ethyl]-imidazo[1,2-b]pyridazin-6-yl}-piperazin-1-yl)ethanone] | 140 | 168 | 35
